In PubChem BioAssay (NCI):
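Cultured in 96-well plates, cells were exposed to test compound for 48 hours across five concentrations. Here, GI50 denotes the concentration required for 50% inhibition of growth. TGI denotes the concentration required for complete inhibition of growth.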

Columns and labels:
Experiment in all cases: growth of human tumour cells (NCI), 48 h
[1] = system: 786-0 renal
[2] = system: A549 NSCLC
[3] = system: ACHN renal
[4] = system: BT-549 breast
[5] = system: CAKI-1 renal
[6] = system: CCRF-CEM leukemia
[7] = system: COLO 205 colon
[8] = system: EKVX NSCLC
[9] = system: HCC-2998 colon
[10] = system: HCT-116 colon
[11] = system: HCT-15 colon
[12] = system: HL-60(TB) leukemia
[13] = system: HOP-62 NSCLC
[14] = system: HOP-92 NSCLC
[15] = system: HS 578T breast
[16] = system: HT29 colon
[17] = system: IGROV1 ovarian
[18] = system: K-562 leukemia
[19] = system: KM12 colon
[20] = system: LOX IMVI melanoma
[21] = system: M14 melanoma
[22] = system: MCF7 breast
[23] = system: MDA-MB-231 breast
[24] = system: MDA-MB-435
[25] = system: MOLT-4 leukemia
[26] = system: NCI-H226 lung
[27] = system: NCI-H23 lung
[28] = system: NCI-H460 lung
[29] = system: NCI-H522 lung
[30] = system: NCI/ADR-RES ovarian
[31] = system: OVCAR-3 ovarian
[32] = system: OVCAR-5 ovarian
[33] = system: OVCAR-8 ovarian
[34] = system: PC-3 prostate
[35] = system: RPMI-8226 leukemia
[36] = system: RXF 393 renal
[37] = system: SF-268 CNS
[38] = system: SF-295 CNS
[39] = system: SK-MEL-2 melanoma
[40] = system: SK-MEL-28 melanoma
[41] = system: SK-MEL-5 melanoma
[42] = system: SN12C renal
[43] = system: SNB-19 CNS
[44] = system: SW-620 colon
[45] = system: T-47D breast
[46] = system: TK-10 renal
[47] = system: U251 CNS
[48] = system: UACC-257 melanoma
[49] = system: UACC-62 melanoma
[50] = system: UO-31 renal
[51] = system: A498 renal
[52] = system: DU-145 prostate
[53] = system: MALME-3M melanoma
[54] = system: OVCAR-4 ovarian
[55] = system: SF-539 CNS
[56] = system: SK-OV-3 ovarian
[57] = system: SNB-75 CNS
[58] = system: SR leukemia

## O=C(O)c1ccc(NCn2nc(-c3ccccc3O)oc2=S)cc1
[1]
  GI50: 39.7 µM
  TGI: > 100 µM
[2]
  GI50: 42.3 µM
  TGI: > 100 µM
[3]
  GI50: 27.7 µM
  TGI: 72 µM
[4]
  GI50: 59.6 µM
  TGI: > 100 µM
[5]
  GI50: > 100000 nM
  TGI: > 100 µM
[6]
  GI50: 7.38 µM
  TGI: > 100000 nM
[7]
  GI50: 48.8 µM
  TGI: > 100 µM
[8]
  GI50: > 100000 nM
  TGI: > 100 µM
[9]
  GI50: 29.2 µM
  TGI: 93.7 µM
[10]
  GI50: 23.7 µM
  TGI: 57.3 µM
[11]
  GI50: 24.9 µM
  TGI: 57.5 µM
[12]
  GI50: 62.8 µM
  TGI: > 100 µM
[13]
  GI50: 47.2 µM
  TGI: > 100 µM
[14]
  GI50: 33.8 µM
  TGI: 82.6 µM
[15]
  GI50: > 100000 nM
  TGI: > 100000 nM
[16]
  GI50: 38.6 µM
  TGI: > 100 µM
[17]
  GI50: > 100000 nM
  TGI: > 100 µM
[18]
  GI50: 40.7 µM
  TGI: > 100 µM
[19]
  GI50: > 100000 nM
  TGI: > 100 µM
[20]
  GI50: 19.9 µM
  TGI: 38.3 µM
[21]
  GI50: 53.5 µM
  TGI: > 100 µM
[22]
  GI50: 49.1 µM
  TGI: > 100 µM
[23]
  GI50: 16.1 µM
  TGI: 58.5 µM
[24]
  GI50: > 100 µM
  TGI: > 100 µM
[25]
  GI50: 4690 nM
  TGI: 26.8 µM
[26]
  GI50: > 100000 nM
  TGI: > 100 µM
[27]
  GI50: 50.7 µM
  TGI: > 100 µM
[28]
  GI50: 40.5 µM
  TGI: > 100 µM
[29]
  GI50: > 100000 nM
  TGI: > 100 µM
[30]
  GI50: 62.7 µM
  TGI: > 100 µM
[31]
  GI50: > 100000 nM
  TGI: > 100000 nM
[32]
  GI50: > 100 µM
  TGI: > 100 µM
[33]
  GI50: > 100000 nM
  TGI: > 100 µM
[34]
  GI50: 59.9 µM
  TGI: > 100 µM
[35]
  GI50: > 100000 nM
  TGI: > 100 µM
[36]
  GI50: 67.9 µM
  TGI: > 100 µM
[37]
  GI50: 96.4 µM
  TGI: > 100 µM
[38]
  GI50: > 100000 nM
  TGI: > 100 µM
[39]
  GI50: > 100000 nM
  TGI: > 100 µM
[40]
  GI50: > 100000 nM
  TGI: > 100 µM
[41]
  GI50: > 100000 nM
  TGI: > 100 µM
[42]
  GI50: 50.5 µM
  TGI: > 100 µM
[43]
  GI50: > 100000 nM
  TGI: > 100 µM
[44]
  GI50: 38.9 µM
  TGI: > 100 µM
[45]
  GI50: > 100000 nM
  TGI: > 100 µM
[46]
  GI50: > 100000 nM
  TGI: > 100 µM
[47]
  GI50: 43.1 µM
  TGI: > 100 µM
[48]
  GI50: > 100 µM
  TGI: > 100 µM
[49]
  GI50: 34.1 µM
  TGI: 97.7 µM
[50]
  GI50: > 100000 nM
  TGI: > 100 µM

## CC(=O)c1ccc2c(c1)C1C=CCC1[C@H](c1cc3c(cc1Br)OCO3)N2 (stereo partly drawn)
[1]
  GI50: 1.53 µM
  TGI: 15.3 µM
[51]
  GI50: 482 nM
  TGI: 2140 nM
[2]
  GI50: 2.03 µM
  TGI: > 34.4 µM
[3]
  GI50: 1.63 µM
  TGI: 22.1 µM
[4]
  GI50: 0.716 µM
  TGI: 13.8 µM
[5]
  GI50: 512 nM
  TGI: 20.5 µM
[6]
  GI50: 0.644 µM
  TGI: 2770 nM
[7]
  GI50: 1.94 µM
  TGI: 5.71 µM
[52]
  GI50: 893 nM
  TGI: 4.44 µM
[8]
  GI50: 1380 nM
  TGI: > 52.5 µM
[9]
  GI50: 3.84 µM
  TGI: 10.6 µM
[10]
  GI50: 1.18 µM
  TGI: 14.3 µM
[11]
  GI50: 1.24 µM
  TGI: 20.6 µM
[12]
  GI50: 1.3 µM
  TGI: 5.07 µM
[13]
  GI50: 1.9 µM
  TGI: 28.9 µM
[14]
  GI50: < 0.0385 µM
  TGI: 0.479 µM
[15]
  GI50: 713 nM
  TGI: 2190 nM
[16]
  GI50: 0.653 µM
  TGI: 13 µM
[17]
  GI50: 1630 nM
  TGI: > 64.9 µM
[18]
  GI50: 0.794 µM
[19]
  GI50: 581 nM
  TGI: 11.3 µM
[20]
  GI50: 1.31 µM
  TGI: 2.62 µM
[21]
  GI50: 0.765 µM
  TGI: 5.38 µM
[53]
  GI50: 860 nM
  TGI: 45.8 µM
[22]
  GI50: 0.368 µM
  TGI: 18.9 µM
[23]
  GI50: 1.3 µM
  TGI: 11.4 µM
[25]
  GI50: 1030 nM
  TGI: 7.77 µM
[26]
  GI50: 1740 nM
  TGI: > 32.6 µM
[27]
  GI50: 2.24 µM
  TGI: 33.4 µM
[28]
  GI50: 0.954 µM
  TGI: 4.81 µM
[29]
  GI50: 840 nM
  TGI: 4.87 µM
[30]
  GI50: 1.33 µM
  TGI: 4.71 µM
[31]
  GI50: 480 nM
  TGI: 1080 nM
[54]
  GI50: 1630 nM
  TGI: > 50.2 µM
[32]
  GI50: 3.01 µM
  TGI: > 38.8 µM
[33]
  GI50: 1630 nM
  TGI: 13 µM
[34]
  GI50: 0.636 µM
  TGI: 7.04 µM
[35]
  GI50: 580 nM
  TGI: 13.2 µM
[36]
  GI50: 1.85 µM
  TGI: 3.35 µM
[37]
  GI50: 0.67 µM
  TGI: 19.1 µM
[38]
  GI50: 382 nM
  TGI: 3.07 µM
[55]
  GI50: 893 nM
  TGI: 2370 nM
[39]
  GI50: 1220 nM
  TGI: 12.4 µM
[40]
  GI50: 626 nM
  TGI: 6.56 µM
[41]
  GI50: 1130 nM
  TGI: 5.81 µM
[56]
  GI50: 1470 nM
  TGI: 17.8 µM
[42]
  GI50: 1.64 µM
  TGI: > 33 µM
[43]
  GI50: 1870 nM
  TGI: 33.2 µM
[57]
  GI50: 500 nM
  TGI: 7.55 µM
[58]
  GI50: 519 nM
  TGI: 6.15 µM
[44]
  GI50: 0.448 µM
  TGI: > 29.2 µM
[45]
  GI50: 1740 nM
  TGI: > 47.4 µM
[46]
  GI50: 2040 nM
  TGI: 37.1 µM
[47]
  GI50: 1.1 µM
  TGI: 11.9 µM
[48]
  GI50: 5.34 µM
  TGI: 27 µM
[49]
  GI50: 1.46 µM
  TGI: > 31.1 µM
[50]
  GI50: 1890 nM
  TGI: 34.9 µM
